Reference: ChEMBL document CHEMBL6103563, “Chiral recognition of CIAC001 isomers in regulating pyruvate kinase M2 and mitigating neuroinflammation” (Eur J Med Chem, 2025)
Active and inactive are the calls of the source. The calls are words filed in the database; no cut-off is given here.

Legend:
[1] = Mean residence time in BALB/c mouse plasma at 10 mg/kg, po measured for 4 hrs by MS-HPLC analysis; type: ADME, organism-based
Homo sapiens = species: Homo sapiens; assay: Binding affinity to PKM2 F26A mutant (unknown origin) at 10 to 50 uM by fluorescence titration based spectrophotometric analysis; conditions: dose 10-50 µM
[2] = Ratio of Cmax in brain to plasma in BALB/c mouse at 10 mg/kg, po measured for 4 hrs by MS-HPLC analysis; type: ADME, organism-based; conditions: brain and plasma
[3] = Ratio of AUC in brain to plasma in BALB/c mouse at 10 mg/kg, po measured for 4 hrs by MS-HPLC analysis; type: ADME, organism-based; conditions: brain and plasma
[4] = Tmax in BALB/c mouse brain at 10 mg/kg, po measured for 4 hrs by MS-HPLC analysis; type: ADME, organism-based
Mus musculus [5] = assay: Anti-morphine addiction activity against BALB/c mouse assessed as decrease in preference for morphine-paired chamber at 0.2 mg/kg administration started on day 3 after 2 days of chamber habituation followed by treatment with morphine on days 4,6 and 8 and with vehicle on days 5,7 and 9 and measured on day 10 by conditional place preference test; type: functional, organism-based; conditions: time 8.0 day
[6] = Acute toxicity against BALB/c mouse assessed as changes in body weight at 20 mg/kg, ip measured for 14 days; type: organism-based; conditions: in vivo, 336 h, time 14 day
[7] = AUC in BALB/c mouse brain at 10 mg/kg, po measured for 4 hrs by MS-HPLC analysis; type: ADME, organism-based; conditions: in vivo
Mus musculus [8] = assay: Anti-neuroinflammatory activity in BALB/c mouse assessed as decrease in morphine-induced IL-1 beta mRNA expression in medial prefrontal cortex at 0.2 mg/kg administration started on day 3 after 2 days of chamber habituation followed by treatment with morphine on days 4,6 and 8 and with vehicle on days 5,7 and 9 and measured on day 10 by qRT-PCR analysis; type: functional, organism-based; conditions: time 8.0 day
[9] = Cmax in BALB/c mouse plasma at 10 mg/kg, po measured for 4 hrs by MS-HPLC analysis; type: ADME, organism-based; conditions: in vivo
Pyruvate kinase PKM [10] = molecular target: T1, Pyruvate kinase PKM (Homo sapiens, UniProt P14618); assay: Binding affinity to PKM2 (unknown origin) assessed as dissociation constant by fluorescence titration based spectrophotometric analysis
Target sequence in this assay (P14618 whole entry): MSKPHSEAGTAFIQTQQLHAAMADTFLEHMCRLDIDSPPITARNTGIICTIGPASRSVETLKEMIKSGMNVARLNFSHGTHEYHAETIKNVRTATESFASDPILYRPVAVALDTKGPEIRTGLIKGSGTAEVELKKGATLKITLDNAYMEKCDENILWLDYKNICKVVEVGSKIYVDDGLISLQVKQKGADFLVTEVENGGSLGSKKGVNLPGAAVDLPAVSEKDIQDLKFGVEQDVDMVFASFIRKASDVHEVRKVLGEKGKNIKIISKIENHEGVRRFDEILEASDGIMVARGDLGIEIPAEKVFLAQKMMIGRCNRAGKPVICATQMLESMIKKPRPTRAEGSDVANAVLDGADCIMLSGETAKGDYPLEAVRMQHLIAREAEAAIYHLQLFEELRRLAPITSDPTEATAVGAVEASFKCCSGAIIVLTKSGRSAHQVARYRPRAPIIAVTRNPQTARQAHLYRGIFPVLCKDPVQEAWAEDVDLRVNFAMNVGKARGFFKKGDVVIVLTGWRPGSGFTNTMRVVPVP

[11] = Acute toxicity against BALB/c mouse assessed as mortality at 20 mg/kg, ip measured after 2 hrs; type: organism-based; conditions: in vivo
Pyruvate kinase PKM [12] = molecular target: T1, Pyruvate kinase PKM; assay: Binding affinity to PKM2 (unknown origin) assessed as decrease in thermal stabilization of protein by measuring change in melting temperature at 100 uM incubated for 2 hrs at room temperature followed by heating at varying temperatures for 5 mins and later cooled at 25 degC for 3 mins by CETSA analysis; conditions: filed as modulator, time 128.0 min
Target sequence in this assay (P14618 2-531 limits assumed): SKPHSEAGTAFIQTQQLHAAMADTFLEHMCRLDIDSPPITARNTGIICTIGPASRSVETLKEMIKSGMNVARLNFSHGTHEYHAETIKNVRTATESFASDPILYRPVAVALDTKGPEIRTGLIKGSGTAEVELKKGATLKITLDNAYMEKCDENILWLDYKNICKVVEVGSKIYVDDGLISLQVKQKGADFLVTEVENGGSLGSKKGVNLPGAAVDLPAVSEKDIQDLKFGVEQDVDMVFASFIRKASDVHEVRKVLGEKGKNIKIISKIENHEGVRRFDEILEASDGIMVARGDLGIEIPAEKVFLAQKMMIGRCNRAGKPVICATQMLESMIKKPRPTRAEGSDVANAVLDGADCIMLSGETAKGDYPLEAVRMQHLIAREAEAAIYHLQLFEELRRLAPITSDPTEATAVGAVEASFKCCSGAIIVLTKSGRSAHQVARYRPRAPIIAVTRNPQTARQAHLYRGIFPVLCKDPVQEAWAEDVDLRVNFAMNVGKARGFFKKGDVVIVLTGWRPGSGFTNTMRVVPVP

[13] = Tmax in BALB/c mouse plasma at 10 mg/kg, po measured for 4 hrs by MS-HPLC analysis; type: ADME, organism-based
[14] = Half life in BALB/c mouse brain at 10 mg/kg, po measured for 4 hrs by MS-HPLC analysis; type: ADME, organism-based
BV-2 [15] = assay: Anti-neuroinflammatory activity in mouse BV-2 cells assessed as inhibition of LPS-induced IL-1 beta mRNA expression at 1 uM by qRT-PCR analysis; type: functional, cell-based
[16] = AUC in BALB/c mouse plasma at 10 mg/kg, po measured for 4 hrs by MS-HPLC analysis; type: ADME, organism-based; conditions: in vivo
BV-2 [17] = assay: Inhibition of LPS-inuced nuclear translocation of PKM2 in mouse BV-2 cells assessed as decrease in PKM2 content in nucleus at 5 uM incubated for 6 hrs in presence of LPS by western blot analysis; type: subcellular; conditions: filed as modulator
BV-2 [18] = assay: Anti-neuroinflammatory activity in mouse BV-2 cells assessed as inhibition of LPS-induced NO production incubated for 24 hrs in presence of LPS by fluorescence-based analysis; type: functional, cell-based; conditions: for IC50: BV-2, 24 h
[19] = Half life in BALB/c mouse plasma at 10 mg/kg, po measured for 4 hrs by MS-HPLC analysis; type: ADME, organism-based
BV-2 [20] = assay: Anti-neuroinflammatory activity in mouse BV-2 cells assessed as inhibition of LPS-induced IL-1 beta mRNA expression at 10 uM by qRT-PCR analysis; type: functional, cell-based
[21] = Mean residence time in BALB/c mouse brain at 10 mg/kg, po measured for 4 hrs by MS-HPLC analysis; type: ADME, organism-based
BV-2 [22] = assay: Anti-neuroinflammatory activity in mouse BV-2 cells assessed as inhibition of LPS-induced microglial activation by measuring inhibition of morphological changes at 5 uM incubated for 24 hrs in presence of LPS by inverted microscopic analysis; type: functional, cell-based
[23] = Cmax in BALB/c mouse brain at 10 mg/kg, po measured for 4 hrs by MS-HPLC analysis; type: ADME, organism-based; conditions: in vivo
Cannabinoid receptor 2 = Cannabinoid receptor 2 (Homo sapiens, UniProt P34972); assay: Binding affinity to CB2 receptor (unknown origin)
Cannabinoid receptor 1 = Cannabinoid receptor 1 (Homo sapiens, UniProt P21554); assay: Binding affinity to CB1 receptor (unknown origin)
Sequence of Cannabinoid receptor 1 (P21554 whole entry): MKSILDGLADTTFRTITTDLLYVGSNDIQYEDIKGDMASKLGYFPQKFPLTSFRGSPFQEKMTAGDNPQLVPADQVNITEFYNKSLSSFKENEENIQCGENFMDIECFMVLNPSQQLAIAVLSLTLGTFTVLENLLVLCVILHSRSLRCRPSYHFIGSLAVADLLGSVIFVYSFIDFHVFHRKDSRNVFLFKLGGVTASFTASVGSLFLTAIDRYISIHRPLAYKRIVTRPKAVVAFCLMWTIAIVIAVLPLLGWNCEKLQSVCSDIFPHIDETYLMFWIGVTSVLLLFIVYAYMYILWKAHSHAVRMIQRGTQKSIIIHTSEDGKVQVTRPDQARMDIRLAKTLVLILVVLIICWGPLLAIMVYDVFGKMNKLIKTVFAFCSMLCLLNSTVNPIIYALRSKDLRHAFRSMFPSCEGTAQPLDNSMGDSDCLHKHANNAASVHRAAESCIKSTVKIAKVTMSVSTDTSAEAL

Sequence of Cannabinoid receptor 2 (P34972 whole entry): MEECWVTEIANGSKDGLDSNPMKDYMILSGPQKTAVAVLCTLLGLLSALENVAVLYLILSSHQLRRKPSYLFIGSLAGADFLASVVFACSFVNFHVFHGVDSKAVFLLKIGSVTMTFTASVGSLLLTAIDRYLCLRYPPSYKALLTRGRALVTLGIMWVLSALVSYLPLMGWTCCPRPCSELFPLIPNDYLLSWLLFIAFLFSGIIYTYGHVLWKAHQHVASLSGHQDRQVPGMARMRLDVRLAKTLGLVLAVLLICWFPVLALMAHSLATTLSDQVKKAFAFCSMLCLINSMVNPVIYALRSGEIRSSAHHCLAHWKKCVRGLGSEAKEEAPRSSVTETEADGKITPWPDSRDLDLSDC

## C=C(C)[C@@H]1CCC(C)=C[C@H]1c1c(O)cc([C@H](C)n2nccn2)cc1O
[1]
  MRT: 72 min
Homo sapiens
  Activity: inactive
[2]
  Kp at 4 h: 3
[3]
  Kp at 4 h: > 2
[4]
  Tmax: 18 min
Mus musculus [5]
  Activity: Active
[6]
  Activity: Non-toxic
[7]
  AUC: 137.7 ng·h/g
Mus musculus [8]
  Activity: Active
[9]
  Cmax: 46.6 ng/mg
Pyruvate kinase PKM [10]
  Kd: 2200 nM
[11]
  Activity: Non-toxic
Pyruvate kinase PKM [12]
  ΔTm: 4.1 °C
[13]
  Tmax: 30 min
[14]
  half-life: 48 min
BV-2 [15]
  Activity: Active
[16]
  AUC: 75.5 ng·h/g
BV-2 [17]
  inhibition: Active
BV-2 [18]
  Activity: Dose-dependent-effect
  IC50: 3300 nM
[19]
  half-life: 42 min
BV-2 [20]
  Activity: Active
[21]
  MRT: 102 min
BV-2 [22]
  Activity: Active
[23]
  Cmax: 130 ng/mg

## CCCCCCC(C)(C)c1cc(O)c2c(c1)OC(C)(C)c1ccc(C)c(CO)c1-2
Cannabinoid receptor 2
  Ki: 96 nM
Cannabinoid receptor 1
  Ki: 0.066 nM

## C=C(C)[C@H]1CCC(C)=C[C@@H]1c1c(O)cc([C@@H](C)n2nccn2)cc1O
BV-2 [18]
  IC50: > 30000 nM

## C=C(C)[C@H]1CCC(C)=C[C@@H]1c1c(O)cc([C@H](C)n2nccn2)cc1O
BV-2 [18]
  IC50: > 30000 nM

## C=C(C)[C@@H]1CCC(C)=C[C@H]1c1c(O)cc([C@@H](C)n2nccn2)cc1O
Mus musculus [5]
  Activity: inactive
Mus musculus [8]
  Activity: Active; Minimal Effect Observed
Pyruvate kinase PKM [12]
  ΔTm: 1.6 °C
BV-2 [17]
  inhibition: Active; Weak Inhibitory Effect Observed
BV-2 [18]
  IC50: 13200 nM
BV-2 [20]
  Activity: Active
BV-2 [22]
  Activity: Active; Lessened Effect Observed
